Assay results as given in patent publication US7226761B2, “Manufacture of five-carbon sugars and sugar alcohols” (Danisco Sweeteners Oy, priority 1992, dated 2007).

How the values were obtained:
DOG1 [1] = target: T1, DOG1 (Saccharomyces cerevisiae, UniProt P38774); test: Specificity of DOG1 towards sugar phosphates in yeast cell extracts (phosphate release); type: biochemical, S. cerevisiae; details: 20 mM substrate; cell extract of H1514; relative to 2-deoxyglucose-6-P as 100%
T1 construct: expressed in transfected cells; host or cells: S. cerevisiae H1104 (W303-1B) transformed with plasmid B1020 (YEplac195, ADH1 promoter-DOG1-ADH1 terminator) = strain H1514; crude cell extract
T1 sequence (P38774 1-246): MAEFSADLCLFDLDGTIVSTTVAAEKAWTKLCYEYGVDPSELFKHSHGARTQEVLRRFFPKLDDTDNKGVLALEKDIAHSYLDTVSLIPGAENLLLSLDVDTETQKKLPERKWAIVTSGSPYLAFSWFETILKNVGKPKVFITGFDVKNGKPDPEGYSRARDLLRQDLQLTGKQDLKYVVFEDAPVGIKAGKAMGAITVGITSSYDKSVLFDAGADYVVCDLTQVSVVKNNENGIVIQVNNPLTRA
Procedure: The specificity of DOG1 towards xylulose-5-P, ribulose-5-P, ribose-5-P and 2-deoxyglucose-6-P was determined using 20 mM substrate concentrations. Yeast cell extracts were prepared as described in example 15, except that 50 mM imidazole-HCl, 10 mM MgCl2 buffer, pH 6.0 was used. 10 μl of extract and 210 μl of substrate (20 mM) in the same buffer was incubated for 30 min, 30° C. The reaction was stopped with final 2% of TCA and the phosphate released was measured using ammonium molybdate (15 mM), zinc acetate (100 mM), pH 5.0 as the reagent. The formation of molybdenum blue was measured at 350 nm, and quantified by phosphate standards (Sanz, P. et al., Yeast 10:1195–1202 (1994); Bencini, D. A. et al., Anal. Biochem. 132:254–258 (1983)).

DOG1 [2] = target: T1, DOG1; details: 40 mM substrate; relative to 2-deoxyglucose-6-P as 100%; cited from earlier work
[3] = XDH activity assay in yeast cell extracts, reaction started with D-xylulose; type: biochemical; details: 1 mM D-xylulose; 0.2 mM NADH; pH 7.0; cell extract
Text: (§1) The xylitol dehydrogenases of P. stipitis, Trichoderma reesei and S. cerevisiae were investigated regarding their specificities towards their sugar substrates. Each of the XDH encoding genes was expressed on multi-copy vectors pAOS67, B1070 and B1163, respectively (see Example 12). Yeast strain H1104 (pAOS67, B1163) and H1052 (B1070) harboring each of the multi-copy vectors, H1160, H1886 and H1748, respectively, were cultivated on SCD medium lacking the appropriate selection marker (histidine, leucine, uracil, respectively). Cells were collected by centrifugation and washed twice with 100 mM sodium phosphate buffer pH 7.0. Cells were resuspended at a concentration of 500 mg/ml wet weight, corresponding approximately to 75 mg/ml dry weight, in the same buffer. 1 ml of this suspension was vortexed with 1 g glass beads (0,5 mm Ø) for 15 min. at 4° C., centrifuged in an Eppendorf centrifuge (13,000 rpm) and the supernatant was assayed. XDH activity was assayed in a medium containing 50 mM Pipes KOH pH 7.0, 0.2 mM NADH. The reaction was started by addition of D-xylulose or D-ribulose at a final concentration of 1 mM. The activity was measured by following the adsorption of NADH at 340 nm.

[4] = XDH activity assay in yeast cell extracts, reaction started with D-ribulose; type: biochemical; details: 1 mM D-ribulose; 0.2 mM NADH; pH 7.0; cell extract
Text: as §1

[5] = Xylulose 5-phosphate reductase (XPDH/APDH) activity assay with NADH; type: biochemical; details: 5 mM xylulose 5-phosphate as the substrate
Procedure: The strain BD 170 [pGTK24(MXD2)] as well as untransformed strain BD 170 was grown overnight on either LB or LB, containing 10% glucose, cell extracts were prepared and the XDH activity measured. The assay conditions for measuring XDH activity were: 30° C., 50 mM Tris-HCI, pH 7.0, 0.2 mM NADH and 10 mM D-xylulose. Changes of absorption at 340 nm were recorded; one unit of activity was defined as the amount of enzyme that catalyzed the reduction of one […] of substrate per minute under the conditions of assay (assuming the differential absorption coefficient NADH/NAD^+ to be equal to […]). The following levels of XDH activity were measured in the strain BD170 [pGTK24(MXD2)] grown on the two media: LB—0.5 U/mgproteins, LB-glucose 0.05–0.15 U/mgprotein. Thus, glucose appeared to repress the activity of the aldolase promoter 3–10 fold. No XDH activity could be detected in the strain BD170 grown on either of the two media.
B. subtilis strain BD170 was transformed with pGTK74(LRXPDH) and pGTK74(BHDH2). The transformants were grown overnight in LB containing 25 mg/liter kanamycin, cell extract were prepared by sonication and the activity of XPDH activity was measured. The conditions for measuring the XPDH activity were similar to those used for measuring the xylitol dehydrogenase activity except that xylulose 5-phosphate was used as the substrate (usually at 5 mM concentration) instead of xylulose. The activities were approximately 0.3 U/mg protein for the XPDH from L. rhamnosus and about 0.5 U/mg protein for B. halodurans enzyme.
Enterococcus avium ATCC 35655 was cultivated at 30° C. in 5 liters of a medium containing: peptone—10 g/l, yeast extract—5 g/l, beef extract 10 g/l, K2HPO4 2 g/l, NaCl—5 g/l, MgSO4—0.02 g/l, MnCl2—0.05 g/l, ammonium citrate 2 g/l, Tween 20—1.1 ml/l, xylitol—20g/l, pH 6.5. […]

[6] = Stereospecificity of D-xylulose 5-phosphate reduction, products dephosphorylated and analyzed by HPLC; type: biochemical; details: 10 mM xylulose 5-phosphate, 10 mM NADH, pH 7.0, 37° C.
Procedure: The stereospecificity of xylulose-phosphate reduction by the B. halodurans XPDH was verified by the following procedure. The reaction between D-xylulose 5-phosphate and NADH was conducted at 37° C. for several hours under the following conditions: 100 mM Tris-HC buffer, pH 7.0, 10 mM xylulose 5-phosphate, 10 mM NADH, […] the enzyme lysate. The reaction products were dephosphorylated with alkaline phosphatase and analyzed by HPLC. […] It should be noted that among the highest-scoring four homologues of the L. rhamnosus XPDH, the enzyme from B. holodurans is the least homologous. This can be interpreted as an indication that the other three homologues (SEQ ID NO:51, 52 and 53) are most probably also xylitol-phosphate dehydrogenases.
The stereospecificity of D-xylulose 5-phosphate reduction by the E. avium arabitol-phosphate dehydrogenase was verified by the following procedure. The reaction between D-xylulose 5-phosphate and NADH was conducted at 37° C. for several hours under the following conditions: 100 mM Tris-HCl buffer, pH 7.0, 10 mM xylulose 5-phosphate, 10 mM NADH, 1U of the enzyme. The reaction products were dephosphorylated with alkaline phosphatase and analyzed by HPLC. […] There are no other arabitol-phosphate dehydrogenases described in the art.
Both arabitol-phosphate dehydrogenase genes were expressed using the same tools and methods as those used for the expression of xylitol-phosphate dehydrogenases (Example 26). Briefly, the coding regions of the two arabitol-phosphate dehydrogenase genes were amplified using the chromosomal DNA of the microorganism from which the enzyme was isolated and the appropriate PCR primers. In the case of E. avium the primers were oAPDH 51 […] SEQ ID NO: 71) and the anti-sense primer oAPDH 31 […]) SEQ ID NO: 72. For B. halodurans, the sense primer was oBHDH 5 ([…], SEQ ID NO: 73) and the anti-sense primer was oBHDH 3 ([…], SEQ ID NO: 74). […] The stereospecificity of D-xylulose 5-phosphate reduction by the previously unknown enzyme from B. halodurans was determined as described in Example 30.

O=CC[C@@H](O)[C@H](O)[C@H](O)COP(=O)(O)O [2-deoxyglucose-6-P, 2-deoxyglucose-6-phosphate]
Relative activity (20 mM) (DOG1 [1]): 100%
Activity reported in the literature (40 mM) (DOG1 [2]): 100%

O=C[C@H](O)[C@H](O)[C@H](O)COP(=O)(O)O [ribose-5-P, ribose-5-phosphate]
Relative activity (20 mM) (DOG1 [1]): 52%
Activity reported in the literature (40 mM) (DOG1 [2]): 42%

O=C(CO)[C@H](O)[C@H](O)COP(=O)(O)O [ribulose-5-P, ribulose-5-phosphate]
Relative activity (20 mM) (DOG1 [1]): 6%
Activity reported in the literature (40 mM) (DOG1 [2]): 7%

B1: Pichia stipitis XDH: xylitol dehydrogenase encoded by the XYL2 gene from Pichia stipitis, expressed in yeast on pAOS67 (protein, UniProt P22144 1-363, looked up)
D-xylulose reductase: MTANPSLVLNKIDDISFETYDAPEISEPTDVLVQVKKTGICGSDIHFYAHGRIGNFVLTKPMVLGHESAGTVVQVGKGVTSLKVGDNVAIEPGIPSRFSDEYKSGHYNLCPHMAFAATPNSKEGEPNPPGTLCKYFKSPEDFLVKLPDHVSLELGALVEPLSVGVHASKLGSVAFGDYVAVFGAGPVGLLAAAVAKTFGAKGVIVVDIFDNKLKMAKDIGAATHTFNSKTGGSEELIKAFGGNVPNVVLECTGAEPCIKLGVDAIAPGGRFVQVGNAAGPVSFPITVFAMKELTLFGSFRYGFNDYKTAVGIFDTNYQNGRENAPIDFEQLITHRYKFKDAIEAYDLVRAGKGAVKCLIDGPE
specific activity towards D-xylulose, normalized to D-xylulose activity being 100% [3]: 100%
specific activity towards D-ribulose, normalized to D-xylulose activity being 100% [4]: 25%

B2: Saccharomyces cerevisiae XDH: enzyme having xylitol dehydrogenase activity encoded by S. cerevisiae ORF YLR070c, expressed on B1163 (protein, UniProt Q07993 1-356, looked up)
D-xylulose reductase: MTDLTTQEAIVLERPGKITLTNVSIPKISDPNEVIIQIKATGICGSDIHYYTHGRIANYVVESPMVLGHESSGIVALIGENVKTLKVGDRVALEPGIPDRFSPEMKEGRYNLDPNLKFAATPPFDGTLTKYYKTMKDFVYKLPDDVSFEEGALIEPLSVAIHANKLAKIKFGARCVVFGAGPIGLLAGKVASVFGAADVVFVDLLENKLETARQFGATHIVNSGDLPHGVTVDSVIKKAIGKKGADVVFECSGAEPCVRAGIEVCKAGGTIVQVGMGQEEIQFPISIIPTKELTFQGCFRYCQGDYSDSIELVSSRKLSLKPFITHRYSFKDAVEAFEETSHHPLNNIKTIIEGPE
specific activity towards D-xylulose, normalized to D-xylulose activity being 100% [3]: 100%
specific activity towards D-ribulose, normalized to D-xylulose activity being 100% [4]: 10%

B3: arabitol-phosphate dehydrogenase: arabitol-phosphate dehydrogenase purified from Enterococcus avium ATCC 35655, SEQ ID NO:69 (protein)
chain: MSKTMKGVSKQAPGYDQMAFIDLSVPEATDDKVLIKVAYTGICGSDIHTFKGEYKNPTTPVVLGHEFSGQVVEVGANVTKVKVGDRVTSETTFYVCGECDYCKEKQYNLCPHRKGIGTQQNGSMANYVLAREESIHLLPDHLSYEGAAMSEPLACCVHAMYQKSHLELKDTIIIMGPGPIGLYLLQIAKEIGAFVIMTGITKDAHRLALAKKLGADVIVDTMKEDLAKVVNEITDGYGVDKVYDASGAVPAVNASLPLIRKQGQFIQVGLFANKMVDLDTESIIQREIEYIGSRSQNPYDWPIAIHLLAKGAINIDEMITKKYPLTEWREAFDKVMEGNEIKVMIESNPEEF
modifications: Bacillus halodurans
specific activity of purified enzyme [5]: about 12 U/mgprotein
products found in the reaction mixture / stereospecificity [6]: Only arabitol and xylulose (corresponding to the unreacted xylulose 5-phosphate) were found
